Literature values, collected in patent US20080200510A1, “Combination of Organic Compounds” (priority 2005, published 2008).

How the values were obtained:
[1] = not given; remark: listed apart in the source
[2] = test system: diet-induced obesity; conditions: preclinical studies; by decreasing body weight, food intake, regulating circulating lipids and energy balance

For `Cc1c(C(=O)NN2CCCCC2)nn(-c2ccc(Cl)cc2Cl)c1-c1ccc(Cl)cc1` [rimonabant, N-piperidino-5-(4-chlorophenyl)-1-(2,4-dichlorophenyl)-4-methylpyrazole-3-carboxamide], the body weight (agent by itself) is listed as “reduction in body weight”, the food intake (agent by itself) is listed as “decrease in food intake” and the “body weight reduction in clinic” value [1] is listed as “highly effective to produce body weight reduction”. For the same compound, the “reversal of diet-induced obesity” value [2] was “effective in reversing diet-induced obesity”.
For `N#C[C@@H]1CCCN1C(=O)CNC12CC3CC(CC(O)(C3)C1)C2` [Vildagliptin, (S)-1-[(3-hydroxy-1-adamantyl)amino]acetyl-2-cyano-pyrrolidine], the glycemia (agent alone, by preserving the incretin effects) is given as “improves glycemia”.
